The target in the experiment is T1, E3 ubiquitin-protein ligase XIAP [163-230]/[26-93] (Homo sapiens, UniProt P98170+P98170).
T1 construct: 163-230; 26-93
The experiment can be described thus: Biological Assay. The method, then:
5000 PPC-1 cells were plated and grown overnight. Compounds were plated and 4 hrs later, TRAIL was added to half of the plate while RPMI was added to the other half of the plate as a control. Plates were return to the incubator for 24 hrs. Plates were removed from the incubator and placed on the bench for 30 min and then 25 uL of Cell Titer Glo were added per well. Plates were placed on a rocker and then read on a luminometer. 5000 MDA-MB-231 cells were plated per well. Compound was added and 4 hrs later, TRAIL was added at 5 ng/mL; RPMI was added for a minus TRAIL control. Plates were incubated an additional 24 hrs, removed to the bench for 30 min, and then 25 uL of cell titer glo was added per well. Plates were placed on a rocker and read on a luminometer. Data were fit using PRISM.

Our source for the Ki values is BindingDB's records for patent US11111270 (Sanford Burnham Prebys Medical Discovery Institute, 2021).

T1 sequence (P98170 26-93): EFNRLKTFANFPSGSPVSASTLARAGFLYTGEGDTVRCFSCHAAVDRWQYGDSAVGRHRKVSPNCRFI
T1 sequence (P98170 163-230): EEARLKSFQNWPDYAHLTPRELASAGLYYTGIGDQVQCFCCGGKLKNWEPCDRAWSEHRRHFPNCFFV

As for `CN[C@@H](C)C(=O)N[C@H]1CCCNC2CCC(C(=O)N[C@@H]3CCCc4ccccc43)N2C1=O` (stereo partly specified) [US11111270, Compound 16], the Ki result is “in the range around 37.5 µM”.
